In patent US20100210562A1, “USE OF IL-1 RECEPTOR PEPTIDE, ALONE OR IN COMBINATION WITH D-ALA-GLN-OCTADECYL ESTER, AS A THERAPEUTIC AGENT” (priority 2007, published 2010):
Where no end group is shown, it is not given here.

System: drug-resistant Mycobacterium tuberculosis
Type: cell-based
Details: 10 micrograms per ml; seven days at 37° C.; strain resistant to PAS, streptomycin and isoniazid

Substance	inhibition of the growth of Mycobacterium tuberculosis [%]
D-Ala-Gln-octadecyl ester [Peptide 2]	100
Lys-Ile-Cys-Ile-Arg-Ile-Gln-Ile-Ser-OH (KICIRIQIS-OH) [Peptide 1]	100
